Reference: patent EP1016409B1, “FREEZE DRIED COMPOSITION COMPRISING GLYCOSPHINGOLIPIDS” (KIRIN BEER KABUSHIKI KAISHA, priority 1997, dated 1998)

Experiment: Selection of a solvent for the active component: solubility judged by naked eye
Assay type: physicochemical
Description: First, […] of the active component (KRN7000) was weighed and stirred in 100 ml of a variety of solvents (Table 3) in a heated bath to 80°C for 20 minutes in order to form a solution having a concentration of 10 µg/ml. With respect to the solvents which were judged to have successfully dissolved 10 µg/ml of the active component, dissolution was further tried in the same manner as above in order to form a solution having a concentration of 100 µg/ml. With respect to the solvents which were judged to have successfully dissolved 100 µg/ml of the active component, dissolution was further tried in the same manner as above in order to form a solution having a concentration of 200 µg/ml. After cooling with running water, the solubility of the component was judged.
The solubility of the component was judged by the test described below. First, transparent colorless glass vials having a volume of 5 ml were charged with about 1.5 ml portion of each sample and sealed up. The vial was cleaned outside and placed beneath the white light source in a darkroom for observation with naked eye at the position of a luminous intensity of about 5,000 lux. When the sample was clear with no precipitates, it was judged that the active component was dissolved.

In the case of `CCCCCCCCCCCCCCCCCCCCCCCCCC(=O)N[C@@H](CO[C@H]1O[C@H](CO)[C@H](O)[C@H](O)[C@H]1O)[C@H](O)[C@H](O)CCCCCCCCCCCCCC` [KRN7000, (2S,3S,4R)-1-(α-D-galactopyranosyloxy)-2-hexacosanoylamino-3,4-octadecanediol], the “Judgment of solubility (by naked eye)” value (solvent 0.5% Cremophor, KRN7000 10 µg/ml) is reported as “+ (+ not dissolved (or deposited))”, the “Judgment of solubility (by naked eye)” value (solvent 0.5% HCO 50, KRN7000 10 µg/ml) is reported as “+ (+ not dissolved (or deposited))” and the “Judgment of solubility (by naked eye)” value (solvent 0.5% HCO 60, KRN7000 10 µg/ml) is reported as “+ (+ not dissolved (or deposited))”. The “Judgment of solubility (by naked eye)” value (solvent 0.5% Polyoxamer 188, KRN7000 10 µg/ml) was “+ (+ not dissolved (or deposited))”, the “Judgment of solubility (by naked eye)” value (solvent 0.5% Polysorbate 20, KRN7000 10 µg/ml) was “- (- dissolved)” and the “Judgment of solubility (by naked eye)” value (solvent 0.5% Polysorbate 20, KRN7000 100 µg/ml) was “- (- dissolved)”. For the same compound, the “Judgment of solubility (by naked eye)” value (solvent 0.5% Polysorbate 20, KRN7000 200 µg/ml) was “- (- dissolved)”, the “Judgment of solubility (by naked eye)” value (solvent 0.5% Polysorbate 80, KRN7000 10 µg/ml) was “- (- dissolved)” and the “Judgment of solubility (by naked eye)” value (solvent 0.5% Polysorbate 80, KRN7000 100 µg/ml) was “+ (+ not dissolved (or deposited))”. The “Judgment of solubility (by naked eye)” value (solvent 1N HCl, KRN7000 10 µg/ml) was “+ (+ not dissolved (or deposited))”, the “Judgment of solubility (by naked eye)” value (solvent 1N NaOH, KRN7000 10 µg/ml) was “+ (+ not dissolved (or deposited))” and the “Judgment of solubility (by naked eye)” value (solvent Distilled water, KRN7000 10 µg/ml) was “+ (+ not dissolved (or deposited))”. For the same compound, the “Judgment of solubility (by naked eye)” value (solvent Ethanol, KRN7000 10 µg/ml) was “- (- dissolved)”, the “Judgment of solubility (by naked eye)” value (solvent Ethanol, KRN7000 100 µg/ml) was “- (- dissolved)” and the “Judgment of solubility (by naked eye)” value (solvent Ethanol, KRN7000 200 µg/ml) was “- (- dissolved)”. The “Judgment of solubility (by naked eye)” value (solvent Glycerol, KRN7000 10 µg/ml) was “- (- dissolved)”, the “Judgment of solubility (by naked eye)” value (solvent Glycerol, KRN7000 100 µg/ml) was “+ (+ not dissolved (or deposited))” and the “Judgment of solubility (by naked eye)” value (solvent Macrogol 400, KRN7000 10 µg/ml) was “- (- dissolved)”. The “Judgment of solubility (by naked eye)” value (solvent Macrogol 400, KRN7000 100 µg/ml) was “+ (+ not dissolved (or deposited))”, the “Judgment of solubility (by naked eye)” value (solvent Propylene glycol, KRN7000 10 µg/ml) was “- (- dissolved)” and the “Judgment of solubility (by naked eye)” value (solvent Propylene glycol, KRN7000 100 µg/ml) was “+ (+ not dissolved (or deposited))”.
